Data on 49 compounds can be found in US12240840B2, “Amide-substituted heterocyclic compounds for the treatment of conditions related to the modulation of IL-12, IL-23 and/or IFN-alpha” (BRISTOL-MYERS SQUIBB COMPANY, priority 2018, dated 2025).

Where two headings read alike, the source gives them in different places.

This experiment has as its system IFNα-induced pSTAT5 (pY694) in CD3 positive cells of human whole blood. Kind of experiment: IFNα-Induced STAT Phosphorylation in Human Whole Blood. The experiment is classed as cell-based. The conditions noted are these: 1 h compound incubation, 1000 U/mL recombinant human IFNα A/D for 15 min, pSTAT5 in CD3 positive population, read-out: Human WB IFNα-Induced Stat Phosph. (IC50). How it is done:
IFNα-Induced STAT Phosphorylation in Human Whole Blood
After an hour long incubation with compound, human whole blood (drawn with either EDTA or ACD-A as anti-coagulant) was stimulated with 1000 U/mL recombinant human IFNα A/D (R&D Systems 11200-2) for 15 min. The stimulation was stopped by adding Fix/Lyse buffer (BD 558049). Cells were stained with a CD3 FITC antibody (BD 555916), washed, and permeabilized on ice using Perm III buffer (BD 558050). Cells were then stained with an Alexa-Fluor 647 pSTAT5 (pY694) antibody (BD 612599) for 30 min prior to analysis on the FACS Canto II. The amount of pSTAT5 expression was quantitated by median fluorescence intensity after gating on the CD3 positive population.
IFNα-Induced STAT Phosphorylation in Human Whole Blood Inhibition Data ND—no data available

In general, IC50 refers to the midpoint of a concentration-inhibition curve. For the compound `[2H]C([2H])([2H])NC(=O)c1nnc(NC(=O)C2CC2)cc1Nc1cccc(-c2ncc(C(=O)N[C@H]3CN4CCC3CC4)s2)c1OC` [Example 327], the IC50 (Homo sapiens) came out at 150 nM.

Regarding `[2H]C([2H])([2H])NC(=O)c1nnc(NC(=O)C2CC2)cc1Nc1cccc(-c2ncc(NC(=O)OC(C)(C)C)s2)c1OC` [Example 281], the half-inhibitory concentration (IC50) (Homo sapiens) is greater than 10000 nM.

On to `[2H]C([2H])([2H])NC(=O)c1nnc(NC(=O)C2CC2)cc1Nc1cccc(-c2cc(C(=O)N3CCNCC3)n(C)n2)c1OC` [Example 492], for which, where the note is “Homo sapiens”, the IC50 worked out at 150 nM.

In the case of `[2H]C([2H])([2H])NC(=O)c1nnc(NC(=O)C2CC2)cc1Nc1cccc(-c2ncc(C(=O)NCCCCC)s2)c1OC` [Example 316], the half-inhibitory concentration (IC50) (Homo sapiens) came to 330 nM.

For `[2H]C([2H])([2H])NC(=O)c1nnc(NC(=O)C2CC2)cc1Nc1cccc(-c2ncc(C(=O)N3CC(C)(C)C3)s2)c1OC` [Example 320], the concentration for half-maximal inhibition (IC50) (Homo sapiens) was 50 nM.

In the case of `[2H]C([2H])([2H])NC(=O)c1nnc(NC(=O)C2CC2)cc1Nc1cccc(-c2noc(CN3CCN(C(=O)OC(C)(C)C)CC3)n2)c1OC` [Example 34], the IC50 (Homo sapiens) came to 1010 nM.

For the compound `[2H]C([2H])([2H])NC(=O)c1nnc(NC(=O)C2CC2)cc1Nc1cccc(-c2nc(CN)no2)c1OC` [Example 143], for the setting “Homo sapiens”, the IC50 is 320 nM.

Regarding `[2H]C([2H])([2H])NC(=O)c1nnc(NC(=O)C2CC2)cc1Nc1cc(F)cc(-c2cc(C(=O)N3CCNC(=O)C3)n(C)n2)c1OC` [Example 519], where the note is “Homo sapiens”, the 50% inhibitory concentration (IC50) was 570 nM.

For the compound `[2H]C([2H])([2H])NC(=O)c1nnc(NC(=O)C2CC2)cc1Nc1cccc(-c2ncc(C(=O)NCCOC)s2)c1OC` [Example 271], the IC50 (Homo sapiens) turned out to be 90 nM.

For `[2H]C([2H])([2H])NC(=O)c1nnc(NC(=O)C2CC2)cc1Nc1cccc(-c2cnn(CCNC(C)=O)c2)c1OC` [Example 556, 4-((3-(1-(2-acetamidoethyl)-1H-pyrazol-4-yl)-2-methoxyphenyl)amino)-6-(cyclopropanecarboxamido)-N-(methyl-d3)pyridazine-3-carboxamide], the IC50 came out at 1070 nM.

With `[2H]C([2H])([2H])NC(=O)c1nnc(NC(=O)C2CC2)cc1Nc1cccc(-c2ncc(C(=O)NCC)s2)c1OC` [Example 272], the concentration for half-maximal inhibition (IC50) (Homo sapiens) is 160 nM.

As for `[2H]C([2H])([2H])NC(=O)c1nnc(NC(=O)C2CC2)cc1Nc1cccc(-c2nc(CN3CC4CN(C(C)=O)CC4C3)no2)c1OC` (stereo not shown) [Example 233], for the setting “Homo sapiens”, the IC50 came to 100 nM.

As for `[2H]C([2H])([2H])NC(=O)c1nnc(NC(=O)C2CC2)cc1Nc1cccc(-c2nc(CNC(=O)CN3CCOCC3)no2)c1OC` [Example 159], the IC50 (Homo sapiens) stood at 1080 nM.

Turning to `[2H]C([2H])([2H])NC(=O)c1cnc(NC(=O)C2CC2)cc1Nc1cccc(-c2noc(COC)n2)c1OC` [Example 93], under “Homo sapiens”, the IC50 came to 50 nM.

`COc1c(Nc2cc(NC(=O)C3CC3)nnc2C(N)=O)cccc1-c1noc(CN(C)S(=O)(=O)CC(F)(F)F)n1` [Example 55]: the IC50 (Homo sapiens) is 40 nM.

`[2H]C([2H])([2H])NC(=O)c1nnc(NC(=O)C2CC2)cc1Nc1cccc(-c2nc(CNC(=O)CC#N)no2)c1OC` [Example 148]: under “Homo sapiens”, the IC50 worked out at 1820 nM.

Consider `[2H]C([2H])([2H])NC(=O)c1nnc(Nc2ccc(OC)nn2)cc1Nc1cccc(-c2cnn(C)n2)c1OC` [Example 451, 4-((2-methoxy-3-(2-methyl-2H-1,2,3-triazol-4-yl)phenyl)amino)-6-((6-methoxypyridazin-3-yl)amino)-N-(methyl-d3)pyridazine-3-carboxamide], for which the IC50 (Homo sapiens) is 60 nM.

Take `[2H]C([2H])([2H])NC(=O)c1cnc(NC(=O)C2CC2)cc1Nc1cccc(-c2nc(C3(N)CC3)no2)c1OC` [Example 212]: the IC50 (Homo sapiens) came out at 320 nM.

Take `[2H]C([2H])([2H])NC(=O)c1nnc(NC(=O)C2CC2)cc1Nc1cccc(-c2noc(CN3CCCS3(=O)=O)n2)c1OC` [Example 76]: the IC50 (Homo sapiens) came out at 30 nM.

`[2H]C([2H])([2H])NC(=O)c1nnc(NC(=O)C2CC2)cc1Nc1cccc(-c2ncc(C(=O)N3CCN(CCO)CC3)s2)c1OC` [Example 269]: the half-inhibitory concentration (IC50) (Homo sapiens) is 40 nM.

Take `[2H]C([2H])([2H])NC(=O)c1cnc(NC(=O)C2CC2)cc1Nc1cccc(-c2noc(CN3CCN(S(C)(=O)=O)CC3)n2)c1OC` [Example 95]: the IC50 (Homo sapiens) came to 21 nM.

For the compound `[2H]C([2H])([2H])NC(=O)c1nnc(NC(=O)C2CC2)cc1Nc1cccc(-c2cc(C(=O)N3CCN(S(C)(=O)=O)CC3)n(C)n2)c1OC` [Example 502], the IC50 (Homo sapiens) is 150 nM.

Take `[2H]C([2H])([2H])NC(=O)c1nnc(NC(=O)C2CC2)cc1Nc1cccc(-c2nc(CNC(C)=O)no2)c1OC` [Example 145]: the 50% inhibitory concentration (IC50) (Homo sapiens) is 270 nM.

In the case of `[2H]C([2H])([2H])NC(=O)c1nnc(NC(=O)C2CC2)cc1Nc1cccc(-c2ncc(C(=O)NCCNC(C)=O)s2)c1OC` [Example 304], the IC50 (Homo sapiens) stood at 130 nM.

On to `[2H]C([2H])([2H])NC(=O)c1nnc(NC(=O)C2CC2)cc1Nc1cccc(-c2nc(CC)no2)c1OC` [Example 121], for which the IC50 (Homo sapiens) is greater than 10000 nM.

For `[2H]C([2H])([2H])NC(=O)c1cnc(Nc2ccc(OC)nn2)cc1Nc1cc(F)cc(-c2cc(C(=O)N(C)C)n(C)n2)c1OC` [Example 551], the half-maximal inhibitory concentration (IC50) (Homo sapiens) was found to be 50 nM.

As for `[2H]C([2H])([2H])NC(=O)c1cnc(NC(=O)C2CC2)cc1Nc1cccc(-c2cnn(CCNC(=O)OC(C)(C)C)n2)c1OC` [Example 430], where the note is “Homo sapiens”, the IC50 was greater than 10000 nM.

Consider `[2H]C([2H])([2H])NC(=O)c1nnc(NC(=O)C2CC2)cc1Nc1cccc(-c2ncc(C(=O)NCC3CCCCN3C)s2)c1OC` (stereo not shown) [Example 329], for which the concentration for half-maximal inhibition (IC50) (Homo sapiens) stood at 50 nM.

With `[2H]C([2H])([2H])NC(=O)c1nnc(NC(=O)C2CC2)cc1Nc1cc(F)cc(-c2cc(NC(C)=O)n(C)n2)c1OC` [Example 500], the concentration for half-maximal inhibition (IC50) (Homo sapiens) worked out at 370 nM.

Regarding `[2H]C([2H])([2H])NC(=O)c1nnc(Nc2cnc(OC)cn2)cc1Nc1cccc(-c2csc(C(=O)NCCOC)n2)c1OC` [Example 570], the half-inhibitory concentration (IC50) (Homo sapiens) came out at 930 nM.

Consider `[2H]C([2H])([2H])NC(=O)c1nnc(NC(=O)C2CC2)cc1Nc1cccc(-c2cc(C(=O)N3CCC3)n(C)n2)c1OC` [Example 538], for which, under “Homo sapiens”, the IC50 was 390 nM.

Regarding `[2H]C([2H])([2H])NC(=O)c1nnc(NC(=O)C2CC2)cc1Nc1cccc(-c2ncc(C(C)O)s2)c1OC` (stereo not shown) [Example 258], the IC50 (Homo sapiens) was 130 nM.

Turning to `[2H]C([2H])([2H])NC(=O)c1nnc(NC(=O)C2CC2)cc1Nc1cccc(-c2nc(C3(NC(=O)OC(C)(C)C)CC3)no2)c1OC` [Example 150], the half-maximal inhibitory concentration (IC50) (Homo sapiens) was greater than 10000 nM.

For `[2H]C([2H])([2H])NC(=O)c1nnc(NC(=O)C2CC2)cc1Nc1cccc(-c2ncc(C(=O)N[C@H]3C[C@H]4CC[C@@H](C3)N4C)s2)c1OC` [Example 338], the IC50 (Homo sapiens) came out at 420 nM.

In the case of `[2H]C([2H])([2H])NC(=O)c1nnc(NC(=O)C2CC2)cc1Nc1cccc(-c2ncc(C(=O)N3CCC[C@H]3CO)s2)c1OC` [Example 302], where the note is “Homo sapiens”, the IC50 was 110 nM.

As for `[2H]C([2H])([2H])NC(=O)c1nnc(NC(=O)C2CC2)cc1Nc1cccc(-c2nc([C@H](COC(C)(C)C)NC(=O)OC(C)(C)C)no2)c1OC` [Example 197], where the note is “Homo sapiens”, the IC50 turned out to be 6200 nM.

`COc1c(Nc2cc(NC(=O)C3CC3)nnc2C(N)=O)cccc1-c1ncc(C(=O)N2CCC(CO)CC2)o1` [Example 418]: the IC50 (Homo sapiens) was 130 nM.

On to `[2H]C([2H])([2H])NC(=O)c1nnc(NC(=O)C2CC2)cc1Nc1cccc(-c2ncc(C(=O)N3CCC(CCN4CCCC4)CC3)s2)c1OC` [Example 318], for which the IC50 (Homo sapiens) worked out at 80 nM.

For the compound `[2H]C([2H])([2H])NC(=O)c1nnc(NC(=O)C2CC2)cc1Nc1cccc(-c2cnn(CC(=O)NCCO)n2)c1OC` [Example 429], under “Homo sapiens”, the 50% inhibitory concentration (IC50) was determined as 190 nM.

Regarding `[2H]C([2H])([2H])NC(=O)c1nnc(NC(=O)C2CC2)cc1Nc1cccc(-c2ncc(C(=O)NCCN3CCOCC3)s2)c1OC` [Example 321], the IC50 (Homo sapiens) was 30 nM.

With `[2H]C([2H])([2H])NC(=O)c1nnc(NC(=O)C2CC2)cc1Nc1cccc(-c2cc(C(=O)N(C)CC(O)CO)n(C)n2)c1OC` (stereo not shown) [Example 520], the 50% inhibitory concentration (IC50) (Homo sapiens) amounted to 770 nM.

Take `[2H]C([2H])([2H])NC(=O)c1nnc(NC(=O)C2CC2)cc1Nc1cccc(-c2ncc(C(=O)Nc3ccc(OC)cc3)s2)c1OC` [Example 296]: where the note is “Homo sapiens”, the IC50 was greater than 10000 nM.

`[2H]C([2H])([2H])NC(=O)c1nnc(NC(=O)C2CC2)cc1Nc1cccc(-c2cc(C(=O)N(C)CCOC)n(C)n2)c1OC` [Example 481]: where the note is “Homo sapiens”, the half-maximal inhibitory concentration (IC50) was found to be 390 nM.

Turning to `[2H]C([2H])([2H])NC(=O)c1nnc(NC(=O)C2CC2)cc1Nc1cccc(-c2noc(C(CC)C(=O)N3CCOCC3)n2)c1OC` (stereo not shown) [Example 45], the half-inhibitory concentration (IC50) (Homo sapiens) stood at 160 nM.

Regarding `[2H]C([2H])([2H])NC(=O)c1nnc(NC(=O)C2CC2)cc1Nc1cccc(-c2noc([C@@H]3C[C@@H](O)CN3S(C)(=O)=O)n2)c1OC` [Example 75], where the note is “Homo sapiens”, the half-inhibitory concentration (IC50) turned out to be 30 nM.

Consider `COc1c(Nc2cc(NC3CC3)nnc2C(N)=O)cccc1-c1noc(CNS(C)(=O)=O)n1` [Example 118], for which, where the note is “Homo sapiens”, the IC50 was found to be 3800 nM.

As for `[2H]C([2H])([2H])NC(=O)c1nnc(NC(=O)C2CC2)cc1Nc1cccc(-c2nc(CN3CCCC3)no2)c1OC` [Example 209], the IC50 (Homo sapiens) came to 1370 nM.

With `[2H]C([2H])([2H])NC(=O)c1nnc(NC(=O)C2CC2)cc1Nc1cccc(-c2nc([C@@H](N)CO)no2)c1OC` [Example 201], under “Homo sapiens”, the IC50 was found to be 290 nM.

For `[2H]C([2H])([2H])NC(=O)c1nnc(NC(=O)C2CC2)cc1Nc1cccc(-c2ncc(C(=O)NCCCN3CCCC3)s2)c1OC` [Example 340], the IC50 (Homo sapiens) came out at 100 nM.
